In US20100285959A1, “HERBICIDAL MIXTURES” (priority 2006, published 2010):

Assays:
[1] = test system: velvetleaf (ABUTH); test: Test 18 greenhouse, post- and preemergence; conditions: 15 DAA
[2] = test system: velvetleaf (ABUTH); test: Test 16 greenhouse, post- and preemergence; conditions: 15 DAA
[3] = test system: velvetleaf (ABUTH); test: Test 17 greenhouse, post- and preemergence; format: in vivo, Abutilon theophrasti; conditions: 12 DAA
Excerpt: Plants were watered as needed.

[4] = test system: flint corn (ZEAMI); test: Test 11 field trial, preemergence; format: in vivo, Zea mays L. ssp. indurata; design: scale not given here; conditions: atrazine 1500 or metolachlor 2500 g a.i./ha alone
Excerpt: (§1) Corn seeds (hybrid ‘Pioneer 3041’) were planted in mid spring season, 5 cm deep in a clay soil having 2.6% organic matter and a pH of 5.6. Plots were 8 m long by 1.5 m wide with rows spaced 80 cm apart. Seeds were spaced 15 cm apart within the rows. The field was managed using conventional tillage practices. […] Treatments consisted of Compound 2 or
(§2) Goosegrass was not evaluated 16 or 91 days after application.

[5] = test system: common blackjack (BIDPI); test: Test 11 field trial, preemergence; format: in vivo, Bidens pilosa; design: scale not given here; conditions: atrazine 1500 or metolachlor 2500 g a.i./ha alone
Excerpt: as §1, §2

[6] = test system: Surinam grass (BRADC); test: Test 11 field trial, preemergence; format: in vivo, Brachiaria decumbens; design: scale not given here; conditions: atrazine 1500 or metolachlor 2500 g a.i./ha alone
Excerpt: as §1, §2

[7] = test system: alexandergrass (BRAPL); test: Test 11 field trial, preemergence; format: in vivo, Brachiaria plantaginea; design: scale not given here; conditions: atrazine 1500 or metolachlor 2500 g a.i./ha alone
Excerpt: as §1, §2

[8] = test system: southern sandbur (CCHEC); test: Test 11 field trial, preemergence; format: in vivo, Cenchrus echinatus; design: scale not given here; conditions: atrazine 1500 or metolachlor 2500 g a.i./ha alone
Excerpt: as §1, §2

[9] = test system: tropical spiderwort (COMBE); test: Test 11 field trial, preemergence; format: in vivo, Commelina benghalensis; design: scale not given here; conditions: atrazine 1500 or metolachlor 2500 g a.i./ha alone
Excerpt: as §1, §2

[10] = test system: Brazilian crabgrass (DIGHO); test: Test 11 field trial, preemergence; format: in vivo, Digitaria horizontalis; design: scale not given here; conditions: atrazine 1500 or metolachlor 2500 g a.i./ha alone
Excerpt: as §1, §2

[11] = test system: goosegrass (ELEIN); test: Test 11 field trial, preemergence; format: in vivo, Eleusine indica
Excerpt: as §1, §2

[12] = test system: Ipomoea grandiflora (IPOGF); test: Test 11 field trial, preemergence; format: in vivo
Excerpt: as §1, §2

[13] = test system: arrowleaf sida (SIDRH); test: Test 11 field trial, preemergence; format: in vivo, Sida rhombifolia
Excerpt: as §1, §2

[14] = 30 DAA, atrazine 1500 or metolachlor 2500 g a.i./ha alone
[15] = 44 DAA, 2500 g a.i./ha, scale 0 to 100
[16] = 62 DAA, 2500 g a.i./ha, scale 0 to 100
[17] = 16 DAA, atrazine 1500 or metolachlor 2500 g a.i./ha alone
[18] = 91 DAA, 2500 g a.i./ha, scale 0 to 100

Cc1nn(-c2cc(NS(C)(=O)=O)c(Cl)cc2Cl)c(=O)n1C(F)F [Sulfentrazone]
Postemergence ABUTH Obs ([1]; alone at 7.5 g a.i./ha): 10
Preemergence ABUTH Obs ([1]; alone at 7.5 g a.i./ha): 0
Postemergence ABUTH Obs ([1]; alone at 15 g a.i./ha): 19
Preemergence ABUTH Obs ([1]; alone at 15 g a.i./ha): 3
Postemergence ABUTH Obs ([1]; alone at 30 g a.i./ha): 44
Preemergence ABUTH Obs ([1]; alone at 30 g a.i./ha): 28

C#CCN1C(=O)COc2cc(F)c(N3C(=O)C4=C(CCCC4)C3=O)cc21 [Flumioxazin]
Obs response, scale 0 to 100 ([2]; Postemergence, 7.5 g a.i./ha): 36
Obs response, scale 0 to 100 ([2]; Postemergence, 15 g a.i./ha): 47
Obs response, scale 0 to 100 ([2]; Postemergence, 30 g a.i./ha): 52
Obs response, scale 0 to 100 ([2]; Postemergence, 45 g a.i./ha): 69
Obs response, scale 0 to 100 ([2]; Preemergence, 7.5 g a.i./ha): 58
Obs response, scale 0 to 100 ([2]; Preemergence, 15 g a.i./ha): 65
Obs response, scale 0 to 100 ([2]; Preemergence, 30 g a.i./ha): 93
Obs response, scale 0 to 100 ([2]; Preemergence, 45 g a.i./ha): 100

Cc1nn(-c2cc(CC(Cl)C(=O)O)c(Cl)cc2F)c(=O)n1C(F)F (centres unmarked) [Carfentrazone]
Obs response, scale 0 to 100 ([3]; Postemergence, 7.5 g a.i./ha): 70
Obs response, scale 0 to 100 ([3]; Postemergence, 15 g a.i./ha): 79
Obs response, scale 0 to 100 ([3]; Postemergence, 30 g a.i./ha): 82
Obs response, scale 0 to 100 ([3]; Preemergence, 7.5 g a.i./ha): 4
Obs response, scale 0 to 100 ([3]; Preemergence, 15 g a.i./ha): 8
Obs response, scale 0 to 100 ([3]; Preemergence, 30 g a.i./ha): 8

CCc1cccc(C)c1N(C(=O)CCl)C(C)COC (centres unmarked) [Metolachlor]
ZEAMI Obs ([4]; 16 DAA): 30
ZEAMI Obs ([4]; 30 DAA): 20
ZEAMI Obs ([4]; 44 DAA): 25
ZEAMI Obs ([4]; 62 DAA): 20
ZEAMI Obs ([4]; 91 DAA): 20
BIDPI Obs ([5]; 16 DAA): 40
BIDPI Obs ([5]; 30 DAA): 40
BIDPI Obs ([5]; 44 DAA): 40
BIDPI Obs ([5]; 62 DAA): 0
BIDPI Obs ([5]; 91 DAA): 0
BRADC Obs ([6]; 16 DAA): 97
BRADC Obs ([6]; 30 DAA): 95
BRADC Obs ([6]; 44 DAA): 90
BRADC Obs ([6]; 62 DAA): 60
BRADC Obs ([6]; 91 DAA): 40
BRAPL Obs ([7]; 16 DAA): 97
BRAPL Obs ([7]; 30 DAA): 90
BRAPL Obs ([7]; 44 DAA): 90
BRAPL Obs ([7]; 62 DAA): 60
BRAPL Obs ([7]; 91 DAA): 40
CCHEC Obs ([8]; 16 DAA): 95
CCHEC Obs ([8]; 30 DAA): 97
CCHEC Obs ([8]; 44 DAA): 97
CCHEC Obs ([8]; 62 DAA): 80
CCHEC Obs ([8]; 91 DAA): 100
COMBE Obs ([9]; 16 DAA): 100
COMBE Obs ([9]; 30 DAA): 100
COMBE Obs ([9]; 44 DAA): 100
COMBE Obs ([9]; 62 DAA): 100
COMBE Obs ([9]; 91 DAA): 100
DIGHO Obs ([10]; 16 DAA): 100
DIGHO Obs ([10]; 30 DAA): 100
DIGHO Obs ([10]; 44 DAA): 100
DIGHO Obs ([10]; 62 DAA): 100
DIGHO Obs ([10]; 91 DAA): 95
ELEIN Obs [11, 14]: 100
ELEIN Obs [11, 15]: 100
ELEIN Obs [11, 16]: 100
IPOGF Obs [12, 17]: 70
IPOGF Obs [12, 14]: 60
IPOGF Obs [12, 15]: 40
IPOGF Obs [12, 16]: 40
IPOGF Obs [12, 18]: 40
SIDRH Obs [13, 17]: 90
SIDRH Obs [13, 14]: 80
SIDRH Obs [13, 15]: 60
SIDRH Obs [13, 16]: 70
SIDRH Obs [13, 18]: 90
